{
  "source": "patent US8895605B2",
  "about": "“Pyrrolidine-substituted flavones as radio-sensitizers for use in the treatment of cancer” (Piramal Enterprises Limited, priority 2009, dated 2014)",
  "tested_on": "FaDu (human head and neck cancer) cells",
  "assay": "In-vitro MTS assay (cytotoxicity, Compound A alone and with radiation)",
  "type": "cell-based",
  "conditions": "for cytotoxicity at 0.7 µM / cytotoxicity at 1 µM / cytotoxicity at 2 µM: FaDu, no radiation; for cytotoxicity at 0.7 µM: 0.7 μM Compound A (IC30) alone; for cytotoxicity at 1 µM: 1 μM Compound A (IC50) alone; for cytotoxicity at 2 µM: 2 μM Compound A (IC70) alone; for Combination index (CI): CompuSyn",
  "text": "The assay has been carried out according to the method described in Molecular Cancer Therapeutics, 2007, 6(9); the disclosure of which is incorporated by reference for the teaching of the assay. MTS (Promega, Cat #G1111) is a tetrazolium compound ((3-(4,5-dimethylthiazol-2-yl)-5-(3-carboxymethoxyphenyl)-2-(4-sulphophenyl)-2H-tetrazolium, inner salt; MTS) for use in colorimetric assays for determining the number of viable cells in proliferation, cytotoxicity or chemosensitivity assays. This is used with an electron coupling reagent PMS (Phenazine methosulfate). MTS is bioreduced by cells into a formazan that is soluble in tissue culture medium. The absorbance of the formazan at 490 nm can be measured directly from 96 well assay plates without additional processing. Dehydrogenase enzymes found in metabolically active cells accomplish the conversion of MTS into the aqueous soluble formazan. The quantity of formazan product as measured at 490 nm absorbance is directly proportional to the number of living cells in culture. Before testing the effect of Compound A on radiosensitivity of FaDu (human head and neck cancer, ATCC, USA) cells, the dose dependent cytotoxicity of Compound A alone was determined using MTS assay. Tumor cells were incubated in the presence of various concentrations of Compound A for 48 h and subjected to MTS assay. […] The Fa-Du (human head and neck cancer, ATCC, USA) cells were seeded at density of 1500 cells/well in 180 μL of MEM (minimum essential medium) in tissue culture grade 96-well plate and allowed to grow for 24 h in humidified 5% CO2 incubator at 37±1° C. Three identical groups of cells were made. After a time interval of 24 h after seeding, different wells of the first and second group of cells were irradiated at room temperature at dose of 2, 4, 6, 8 and 10 Gy respectively. The second group was further treated 24 h after irradiation (i.e. on the third day of the experiment) with IC30 concentration of Compound A. The third group was treated on the third day of the experiment, with IC30 concentration of Compound A alone. In order to obtain IC30 concentration (0.7 μM) of Compound A in any well, 20 μL of a stock solution of concentration 10×IC30, (i.e. 7 μM) was added to the well (dissolved first in DMSO and then in cell medium, final DMSO concentration should not exceed 0.5%) and diluted to 200 μL with MEM. The wells were incubated for 48 h and 96 h respectively, in humidified 5% CO2 incubator at 37±1° C. After completion of 48 h and 96 h respectively, the medium was removed from all wells and fresh MEM was added and the plates were incubated further for additional 4-6 days or for total of 8-10 days from the start of the experiment. At the end of the experiment, the medium was removed from all wells and 20 μL of MTS (2 mg/ml in phosphate buffer saline, pH 6-6.5 and filter sterilized) and 1 μL of PMS (3 mM in PBS, pH 7.3 and filter sterilized) was added per well along with the cell medium to adjust the total volume to 200 μL/well. The plate was incubated for 2-4 h in humidified 5% CO2 incubator at 37±1° C. The plate was read at 490 nm on Spectrophotometer (SpectraMax, Molecular Devices, USA), and the percentage cytotoxicity using SoftMax, software for SpectraMax was calculated. The above experiment was repeated using IC50 and IC70 concentrations of Compound A. The enhancement in radiation effects in FaDu cell line as evaluated using the CompuSyn software by Chou and Talalay, described in Pharmacological Reviews, 2006, 58, 621-681, which is incorporated herewith by reference. Combination index (CI) is used to evaluate if a combination is additive, synergistic or antagonistic. CI<1 is synergistic, CI=1 is additive and CI>1 is antagonistic. For example, at a treatment of 48 h with a concentration of IC70 of Compound A, the combination was synergistic (CI=0.7) at all the doses of radiation. The combination index in both the cases ie. […]",
  "key": {"[1]": {"conditions": "Compound A alone, 48 h incubation, FaDu cells"}, "[2]": {"conditions": "Homo sapiens, 48 h, read-out: % cytotoxicity 48 h after Compound A treatment"}, "[3]": {"conditions": "Homo sapiens, 96 h, read-out: % cytotoxicity 96 h after Compound A treatment"}},
  "note": "pIC50: −log10 of the molar value. Like-named read-outs stand apart in the source and are kept apart here.",
  "data": [
    {"smiles": "CN1CC[C@@H](c2c(O)cc(O)c3c(=O)cc(-c4ccccc4Cl)oc23)[C@@H]1CO.Cl", "note": "[Compound A, (+)-trans-2-(2-Chlorophenyl)-5,7-dihydroxy-8-(2-hydroxymethyl-1-methyl-pyrrolidin-3-yl)-chromen-4-one hydrochloride]", "values": [
      {"measurement": "% cytotoxicity 48 h after Compound A treatment", "setting": "2 Gy radiation, then 0.7 μM Compound A (IC30) 24 h after radiation, 48 h", "value": 23, "unit": "%"},
      {"measurement": "% cytotoxicity 96 h after Compound A treatment", "setting": "2 Gy radiation, then 0.7 μM Compound A (IC30) 24 h after radiation, 96 h", "value": 15, "unit": "%"},
      {"measurement": "% cytotoxicity 48 h after Compound A treatment", "setting": "2 Gy radiation, then 1 μM Compound A (IC50) 24 h after radiation, 48 h", "value": 35, "unit": "%"},
      {"measurement": "% cytotoxicity 48 h after Compound A treatment", "setting": "2 Gy radiation, then 2 μM Compound A (IC70) 24 h after radiation, 48 h", "value": 79, "unit": "%"},
      {"measurement": "% cytotoxicity 96 h after Compound A treatment", "setting": "2 Gy radiation, then 2 μM Compound A (IC70) 24 h after radiation, 96 h", "value": 98, "unit": "%"},
      {"measurement": "% cytotoxicity 48 h after Compound A treatment", "setting": "4 Gy radiation, then 0.7 μM Compound A (IC30) 24 h after radiation, 48 h", "value": 35, "unit": "%"},
      {"measurement": "% cytotoxicity 96 h after Compound A treatment", "setting": "4 Gy radiation, then 0.7 μM Compound A (IC30) 24 h after radiation, 96 h", "value": 31, "unit": "%"},
      {"measurement": "% cytotoxicity 48 h after Compound A treatment", "setting": "4 Gy radiation, then 1 μM Compound A (IC50) 24 h after radiation, 48 h", "value": 50, "unit": "%"},
      {"measurement": "% cytotoxicity 96 h after Compound A treatment", "setting": "4 Gy radiation, then 1 μM Compound A (IC50) 24 h after radiation, 96 h", "value": 37, "unit": "%"},
      {"measurement": "% cytotoxicity 48 h after Compound A treatment", "setting": "4 Gy radiation, then 2 μM Compound A (IC70) 24 h after radiation, 48 h", "value": 86, "unit": "%"},
      {"measurement": "% cytotoxicity 96 h after Compound A treatment", "setting": "4 Gy radiation, then 2 μM Compound A (IC70) 24 h after radiation, 96 h", "value": 96, "unit": "%"},
      {"measurement": "% cytotoxicity 48 h after Compound A treatment", "setting": "6 Gy radiation, then 0.7 μM Compound A (IC30) 24 h after radiation, 48 h", "value": 64, "unit": "%"},
      {"measurement": "% cytotoxicity 96 h after Compound A treatment", "setting": "6 Gy radiation, then 0.7 μM Compound A (IC30) 24 h after radiation, 96 h", "value": 60, "unit": "%"},
      {"measurement": "% cytotoxicity 48 h after Compound A treatment", "setting": "6 Gy radiation, then 1 μM Compound A (IC50) 24 h after radiation, 48 h", "value": 73, "unit": "%"},
      {"measurement": "% cytotoxicity 96 h after Compound A treatment", "setting": "6 Gy radiation, then 1 μM Compound A (IC50) 24 h after radiation, 96 h", "value": 77, "unit": "%"},
      {"measurement": "% cytotoxicity 48 h after Compound A treatment", "setting": "6 Gy radiation, then 2 μM Compound A (IC70) 24 h after radiation, 48 h", "value": 89, "unit": "%"},
      {"measurement": "% cytotoxicity 96 h after Compound A treatment", "setting": "6 Gy radiation, then 2 μM Compound A (IC70) 24 h after radiation, 96 h", "value": 96, "unit": "%"},
      {"measurement": "% cytotoxicity 48 h after Compound A treatment", "setting": "8 Gy radiation, then 0.7 μM Compound A (IC30) 24 h after radiation, 48 h", "value": 79, "unit": "%"},
      {"measurement": "% cytotoxicity 96 h after Compound A treatment", "setting": "8 Gy radiation, then 0.7 μM Compound A (IC30) 24 h after radiation, 96 h", "value": 69, "unit": "%"},
      {"measurement": "% cytotoxicity 48 h after Compound A treatment", "setting": "8 Gy radiation, then 1 μM Compound A (IC50) 24 h after radiation, 48 h", "value": 85, "unit": "%"},
      {"measurement": "% cytotoxicity 96 h after Compound A treatment", "setting": "8 Gy radiation, then 1 μM Compound A (IC50) 24 h after radiation, 96 h", "value": 84, "unit": "%"},
      {"measurement": "% cytotoxicity 48 h after Compound A treatment", "setting": "8 Gy radiation, then 2 μM Compound A (IC70) 24 h after radiation, 48 h", "value": 91, "unit": "%"},
      {"measurement": "% cytotoxicity 96 h after Compound A treatment", "setting": "8 Gy radiation, then 2 μM Compound A (IC70) 24 h after radiation, 96 h", "value": 95, "unit": "%"},
      {"measurement": "% cytotoxicity 48 h after Compound A treatment", "setting": "10 Gy radiation, then 0.7 μM Compound A (IC30) 24 h after radiation, 48 h", "value": 80, "unit": "%"},
      {"measurement": "% cytotoxicity 96 h after Compound A treatment", "setting": "10 Gy radiation, then 0.7 μM Compound A (IC30) 24 h after radiation, 96 h", "value": 85, "unit": "%"},
      {"measurement": "% cytotoxicity 48 h after Compound A treatment", "setting": "10 Gy radiation, then 1 μM Compound A (IC50) 24 h after radiation, 48 h", "value": 86, "unit": "%"},
      {"measurement": "% cytotoxicity 96 h after Compound A treatment", "setting": "10 Gy radiation, then 1 μM Compound A (IC50) 24 h after radiation, 96 h", "value": 90, "unit": "%"},
      {"measurement": "% cytotoxicity 48 h after Compound A treatment", "setting": "10 Gy radiation, then 2 μM Compound A (IC70) 24 h after radiation, 48 h", "value": 91, "unit": "%"},
      {"measurement": "% cytotoxicity 96 h after Compound A treatment", "setting": "10 Gy radiation, then 2 μM Compound A (IC70) 24 h after radiation, 96 h", "value": 94, "unit": "%"},
      {"measurement": "IC30", "setting": "[1]", "value": 700, "unit": "nM"},
      {"measurement": "IC70", "setting": "[1]", "value": 2000, "unit": "nM"},
      {"measurement": "cytotoxicity at 0.7 µM", "setting": "[2]", "value": 8, "unit": "%"},
      {"measurement": "cytotoxicity at 0.7 µM", "setting": "[3]", "value": 4, "unit": "%"},
      {"measurement": "cytotoxicity at 1 µM", "setting": "[2]", "value": 20, "unit": "%"},
      {"measurement": "cytotoxicity at 1 µM", "setting": "[3]", "value": 25, "unit": "%"},
      {"measurement": "cytotoxicity at 2 µM", "setting": "[2]", "value": 66, "unit": "%"},
      {"measurement": "cytotoxicity at 2 µM", "setting": "[3]", "value": 83, "unit": "%"},
      {"measurement": "pIC50", "setting": "Homo sapiens, Compound A alone, 48 h incubation, FaDu cells", "value": 6.00},
      {"measurement": "Enhancement in radiation effects (combination class)", "setting": "radiation 6, 8 and 10 Gy followed by Compound A at IC30 for 48 h", "value": "synergistic (CI<1 is synergistic)"},
      {"measurement": "Enhancement in radiation effects (combination class)", "setting": "radiation 6, 8 and 10 Gy followed by Compound A at IC50 for 48 h", "value": "synergistic (CI<1 is synergistic)"},
      {"measurement": "Combination index (CI)", "setting": "radiation + Compound A at IC30, 96 h treatment, all doses of radiation", "value": 1},
      {"measurement": "Combination index (CI)", "setting": "radiation + Compound A at IC50, 96 h treatment, all doses of radiation", "value": 1},
      {"measurement": "Combination index (CI)", "setting": "radiation + Compound A at IC70, 48 h treatment, all doses of radiation", "value": 0.7},
      {"measurement": "Combination index (CI)", "setting": "radiation + Compound A at IC70, 96 h treatment, at 2, 4 and 6 Gy", "value": "< 1"}
    ]}
  ]
}
